# Patent US20080171716A1, “NUCLEIC ACID MODULATION OF TOLL-LIKE RECEPTOR-MEDIATED IMMUNE STIMULATION” (Protiva Biotherapeutics, Inc., priority 2006, published 2008)
# m = 2'-O-methyl; r = 2'-OH (RNA)
# System: TLR7/8
# Test: Cytokine induction in human PBMCs by immunostimulatory RNA, alone or co-formulated with modified ssRNA in the same SNALP/lipid particle
# Assay type: cell-based
# Settings: for IFN-α production induced by the RNA alone: lipid-formulated RNA alone, doses 0.1 to 3 μg/ml; for immunostimulatory effects (IFN-α induction) of ApoB antisense ssRNA when co-formulated / IFN-α induction by NP ssRNA when co-formulated: 1:1 molar ratio; for IFN-α induction by NP ssRNA when co-formulated: 0.5 μg/ml NP ssRNA
# Procedure: All RNA molecules used in this study were heated at 90° C. for 3 min. and then placed at 37° C. for 60 min. Non-denaturing PAGE analysis on a 20% polyacrylamide gel was performed to confirm that ssRNA molecules were intact and that no duplexes had formed upon heating. The RNA molecules were encapsulated in a SNALP formulation comprising PEG-cDMA:DLinDMA:cholesterol:DSPC in a 2:40:48:10 mol % ratio (2:40 SNALP), prepared using a syringe press process.
# Fresh human peripheral blood mononuclear cells (PBMCs) were isolated and seeded at about 3×10^5 cells/well in a total volume of 180 μl. Next, 20 μl of the appropriate SNALP diluted in PBS or 10 μl of naked TLR agonist were added to the PBMCs. For time course experiments, PBMCs were pretreated with UmodS ssRNA or a control and the appropriate naked TLR agonist was added at 0, 0.5, or 2 hours after pretreatment. When the SNALP and naked TLR agonist were added separately, the SNALP was added first followed by the naked TLR agonist. At t=24 hr., the cell supernatant was harvested and IFN-α and/or IL-6 levels were determined using ELISA.
# The ssRNA molecules used in this study were heated at 90° C. for 3 min. and then placed at 37° C. for 60 min to disrupt any potential secondary structure. Non-denaturing PAGE analysis on a 20% polyacrylamide gel was performed to confirm that ssRNA molecules were intact and that no duplexes had formed upon heating. siRNA duplexes were prepared by annealing equimolar concentrations of two deprotected and desalted ssRNA oligonucleotides using standard procedures. Formation of annealed siRNA duplexes was confirmed by non-denaturing PAGE analysis on a 20% polyacrylamide gel. The RNA molecules were encapsulated in a 2:40 SNALP formulation prepared using a syringe press process.
# Fresh human peripheral blood mononuclear cells (PBMCs) were isolated and seeded at about 3×10^5 cells/well in a total volume of 180 μl. Next, 20 μl of the appropriate SNALP diluted in PBS were added to the PBMCs. At t=24 hr., the cell supernatant was harvested and IFN-α and/or IL-6 levels were determined using an enzyme-linked immunosorbent assay (ELISA). For example, IFN-α and IL-6 levels can be measured using a sandwich ELISA kit available from PBL Biomedical (Piscataway, N.J.) and eBioscience (San Diego, Calif.), respectively.
# Lipid Encapsulation of RNA and ODN. RNA or ODN were encapsulated in liposomes by a process of spontaneous vesicle formation as described in Judge et al., supra, and Jeffs et al., Pharm. Res., 22:362-372 (2005).
# Cell Isolation and Culture. Human PBMCs were isolated from whole blood of healthy donors by a standard Ficoll-Hypaque density centrifugation. Blood was diluted 1:1 with PBS, layered onto Ficoll-Paque Plus, and centrifuged at 1600 RPM for 30 min. PBMCs were washed in PBS twice followed by resuspension in complete media (RPMI 1640, 10% heat inactivated FBS, 2 mM L-glutamine, and 1% penicillin/streptomycin). PBMCs were plated at 2.5×10^5 cells/well in 96 well plates for cytokine induction assays.
# Loxoribine (InvivoGen; San Diego, Calif.), polyIC (Sigma-Aldrich; St. Louis, Mo.), and formulated nucleic acids were diluted in PBS and added to either human PBMC or Flt3L DC cultures. Cells were incubated 24 h at 37° C. before supernatants were assayed for cytokines by ELISA.
# Cytokine ELISA. All cytokines were quantified using sandwich ELISA kits according to the manufacturer's instructions. These were mouse and human IFN-α (PBL Biomedical; Piscataway, N.J.) and IL-6 (eBioscience; San Diego, Calif.).
# [1] = human PBMCs, co-formulated in the same SNALP, 24 h
# [2] = human PBMCs, equimolar amounts in the same SNALP, 24 h
substance,measurement,setting,value
ApoB antisense ssRNA: immunostimulatory antisense ssRNA: AUUGGUAUUCAGUGUGAUGACAC (chemistry not given here) [reference compound],IFN-α production induced by the RNA alone,human PBMC cultures,induced high levels of IFN-α
same,IFN-α production induced by ApoB antisense ssRNA in absence of modified ssRNA,"human PBMCs, SNALP, 24 hr",5000 to 6000 pg/mL
"Luc: unmodified Luc sense strand ssRNA: 5′GAUUAUGUCCGGUUAUGUAUU 3′ (sense GAUUAUGUCCGGUUAUGUAUU; RNA, backbone not given here) [reference compound]",immunostimulatory effects (IFN-α induction) of ApoB antisense ssRNA when co-formulated,[1],high levels of IFN-α were still induced
"NP1496 UmodS: influenza NP1496 sense strand ssRNA with 2′OMe uridines: GGAmUCmUmUAmUmUmUCmUmUCGGAGUU (sense GGAUCUUAUUUCUUCGGAGUU; sugars from the 5' end rrrmrmmrmmmrmmrrrrrrr, backbone not given here)",IFN-α production induced by the RNA alone,[…],do not induce measurable IFN-α production
same,immunostimulatory effects of ApoB antisense ssRNA at molar excess of agonist,"human PBMCs, co-formulated in the same SNALP at 1:1, 1:2, or 1:4 molar ratio (up to 4-fold molar excess of agonist)",antagonized
same,immunostimulatory effects (IFN-α induction) of ApoB antisense ssRNA when co-formulated,[1],abolished
same,immunostimulatory effects (IFN-α induction) of ApoB antisense ssRNA when co-formulated,"human PBMCs, co-formulated in the same SNALP, 24 h, listed as NP-mU",abrogated
same,immunostimulatory effects (IFN-α induction) of ApoB siRNA duplex when co-formulated,"human PBMCs, co-formulated in the same SNALP, equimolar, 24 h",abrogated
same,IFN-α levels induced by β-gal antisense ssRNA when co-encapsulated,[2],abrogated
"NP1496: unmodified NP1496 sense strand ssRNA: GGAUCUUAUUUCUUCGGAGUU (RNA, backbone not given here) [reference compound]",immunostimulatory effects (IFN-α induction) of ApoB antisense ssRNA when co-formulated,[1],high levels of IFN-α were still induced
"NP-mC: 2′OMe-cytidine RNA: GGAUmCUUAUUUmCUUmCGGAGUU (GGAUCUUAUUUCUUCGGAGUU; 2'-O-methyl at C, RNA at AGU, backbone not given here)",immunostimulatory effects (IFN-α induction) of ApoB antisense ssRNA when co-formulated,[1],do not inhibit
"polyUmod10: 2′OMe-uridine homopolymer of 10 nucleotides in length (UUUUUUUUUU; all 2'-O-methyl, backbone not given here)",cytokine production from human PBMCs when co-formulated with immunostimulatory RNA,"human PBMCs, co-formulated with immunostimulatory ssRNA","significantly reduced cytokine induction, although inhibition with these shorter oligonucleotides was not absolute"
same,IFN-α levels induced by β-gal antisense ssRNA when co-encapsulated,[2],significantly reduced
same,IL-6 levels induced by β-gal antisense ssRNA when co-encapsulated,[2],significantly reduced
same,IFN-α levels induced by β-gal antisense ssRNA when co-encapsulated,"human PBMCs, equimolar amounts in the same SNALP, 24 h, listed as (mU)10",inhibit
β-gal [reference compound],immunostimulatory effects (IFN-α induction) of ApoB antisense ssRNA when co-formulated,[1],high levels of IFN-α were still induced
"βgal-mA: 2′OMe-adenosine modified RNA: CUmACmACmAmAmAUCmAGCGmAUUUU (CUACACAAAUCAGCGAUUUU; 2'-O-methyl at A, RNA at CGU, backbone not given here)",IFN-α induction by NP ssRNA when co-formulated,"human PBMCs, 24 h",inhibits
"βgal-mC: 2′OMe-cytidine RNA: mCUAmCAmCAAAUmCAGmCGAUUUUU (CUACACAAAUCAGCGAUUUUU; 2'-O-methyl at C, RNA at AGU, backbone not given here)",IFN-α induction by NP ssRNA when co-formulated,"human PBMCs, 24 h",not
same,immunostimulatory effects (IFN-α induction) of ApoB antisense ssRNA when co-formulated,[1],do not inhibit
"βgal-mG: 2′OMe-guanosine modified RNA: CUACACAAAUCAmGCmGAUUUUU (CUACACAAAUCAGCGAUUUUU; sugars from the 5' end r12 m1 r1 m1 r6, backbone not given here)",IFN-α induction by NP ssRNA when co-formulated,"human PBMCs, 24 h",inhibits
